Data from patent US20260014227A1, “DESLORELIN USE IN CHEMICAL CASTRATION OF A NON-HUMAN MAMMAL RELATED TO PK/PD INTERACTION” (priority 2022, published 2026).
Values joined by “and” are separate entries in the source; they are usually repeats but may differ in a detail not shown here. Identical values can stand only once.

Key:
[1] = in vivo
Description: Samples were collected from 10 intact male cats treated with Suprelorin® 4.7 implant. Samples (based on a plasma volume of 150 μL, treated with K2-EDTA as anticoagulant) were analyzed by a LC-MS/MS method after a solid extraction phase using μElution Oasis® WCX plates. The compound (13C, 15N)-Leu (7)-deslorelin was used as a standard. The calibration range was 4 pg/mL-2000 pg/mL.

[2] = tested on: prepubertal bitches; settings: cited from earlier work
[3] = design: species or system cat; settings: in vivo
Description: • study period: D0-560 (18 months)· • n=20 adults, sexually mature intact male cats • blinded, randomized • Suprelorin® group: n=16=>4.7 mg Suprelorin® SC, neck • Control group: n=4=>0.5 ml saline SC, neck
Blood samples were collected from 16 healthy, intact male cats that had received a deslorelin implant. Samples were analyzed using a validated liquid chromatography coupled to tandem mass spectrometry (LC-MS/MS) method after solid extraction using Oasis® WCX uElution plate. […] Concentrations measured below the lower limit of quantification (LLOQ) of 4 pg/mL were reported as BLQ (Below the Limit of Quantification).
Non-compartmental pharmacokinetic analysis of individual deslorelin concentrations in feline plasma was performed using Phoenix® software (WinNonlin 8.0, NLME 1.6, Certara L. P., Pharsight, St. Louis, MO, USA) to estimate the pharmacokinetic parameters of deslorelin.

[4] = tested on: male cats; experiment: Cat field studies 1 and 2: suppression of fertility, reversibility, behaviour, safety (Example 12); type: in vivo
Excerpt: The efficacy and safety of the re-implantation was followed-up for these supplementary 12 months, i.e. for a total of 24 months.
The observation schedule was as follows: • Study 1: V1: Day −14 to −7; V2: Day 0; V3: 1.5 months±3 days; V4: 3 months±5 days, V5: 6 months±5 days, V6: 9 months±5 days; V7: 12 months #5 days; • Study 2: V8: 12 months±3 days; V9: 13.5 months±3 days; V10: 15 months±5 days; V11: 18 months±5 days; V12: 21 months±5 days; V13: 24 months±5 days.
Regarding the enrolment criteria, in both studies the criteria were as the following: • Domestic Cats • Age >3 MONTHS old or >15 MONTHS in Study 2 • Intact Indoor males • Client-owned (including shelter cats/rehomed by foster families)
In these studies the following primary endpoints were measured: • For Study 1: the suppression of fertility (Testosterone≤0.10 ng/ml* from V4 until V7*-3 to 12 months) • Study 2: the suppression of fertility (Testosterone≤0.10 ng/mL*from V8 until V13 (12 to 24 months) and the time to reversion effect. […]

[5] = tested on: cat; experiment: Safety study in cat, high dose; type: in vivo
[6] = dog, in vivo
[7] = tested on: testosterone, LH and FSH; experiment: in vivo; type: in vivo, dog; settings: assessed graphically
[8] = in vivo; type: in vivo, dog; settings: male, dog, in vivo, 4.7 mg
[9] = tested on: testosterone; experiment: Correlation between deslorelin and testosterone concentration (Example 4); type: in vivo, cat; settings: 16 male cats, 4.7 mg implant; assessed graphically
Description: The serum concentration of testosterone was measured according to the protocol detailed in example 2, point 2.1.
The plasmatic concentration of deslorelin was measured according to the protocol detailed in example 1, point 1.1.

[10] = tested on: male dogs; settings: cited from earlier work
[11] = tested on: intact male cats; experiment: PK/PD preclinical study in 15-week-old male cats: penile spines, behaviour, puberty, reversal (Example 13); type: in vivo, cat; settings: treated at 15 weeks of age
Excerpt: On D14, the three spare cats were removed from the study. Five+3 female cats (Group 3), pubescent at study start, were included in the study solely to assess the reproductive behavior of male cats. They were not treated with the implant. • Duration: 18 Study Months post-injection (PI) (D502/Week 72, i.e., 16.5 calendar months)

[12] = tested on: intact male cats; experiment: Testicular size by calipers (Example 7); type: in vivo, cat; settings: treated cats
[13] = in vivo; settings: male, dog, 4.7 mg
[14] = tested on: prepubertal female dogs; experiment: Delay of puberty onset in prepubertal female dogs (Example 14); type: in vivo, dog
Excerpt: The aim of this study was to evaluate the delay of puberty onset in prepubertal female dogs. As known the puberty begins with the setting up of several parameters: • Increasing number of receptors in central nervous system (CNS) and gonads • Desensitization of hypothalamus/pituitary towards estrogens • Ripening of the gonads and the secondary sexual organs • Follicle ripening, spermatogenesis

CCNC(=O)[C@@H]1CCCN1C(=O)[C@H](CCCN=C(N)N)NC(=O)[C@H](CC(C)C)NC(=O)[C@@H](Cc1c[nH]c2ccccc12)NC(=O)[C@H](Cc1ccc(O)cc1)NC(=O)[C@H](CO)NC(=O)[C@H](Cc1c[nH]c2ccccc12)NC(=O)[C@H](Cc1cnc[nH]1)NC(=O)[C@@H]1CCC(=O)N1 [deslorelin]
Time deslorelin remains in the blood [1]: up to 497 days | Delay of puberty ([2]; prepubertal bitch): at least 4.5 months | Progesterone (P4), mean ([2]; prepubertal bitches): 0.6 ± 0.2 ng/mL | Time deslorelin remains present in the blood [3]: up to 560 days | Duration of effective chemical castration ([4]; male cats): at least 12 months | Onset of efficacy in behavioral reduction ([4]; sexual behaviors): 7 to 31 days | Safety findings [5]: neither serious adverse events nor live threatening events | Study day until which plasma deslorelin was quantifiable [6]: 441 | Deslorelin concentration below which testosterone/LH/FSH concentrations started to increase [7]: 12 pg/mL and < 12 pg/mL | level at 5376 h [8]: 12 ± 10.4 pg/mL | Deslorelin concentration below which testosterone started to increase [9]: < 12 pg/mL | Presence of deslorelin ([10]; dog, in vivo): 2.5 months | Duration of observed effect ([10]; dogs): at least 6 months | Persistent pharmacological effect by plasma testosterone ([10]; following administration): at least 12 months | Duration of delay of puberty onset [11]: at least 1 year | Effect on testicular volume [12]: induced a decrease in testicular volume | level at 10584 h [13]: 2 pg/mL | Findings in prepubertal female dogs ([14]; with 1 implant): no disturbance of body development, the vulva size was normal, but delayed epiphyseal closure | Findings in prepubertal female dogs ([14]; with 3 implants every 4.5 Mo): vulva stayed juvenile and the effect was comparable to prepubertal castration
